These results are taken from ChEMBL document CHEMBL5131568, “Discovery of an Oral, Rule of 5 Compliant, Interleukin 17A Protein-Protein Interaction Modulator for the Potential Treatment of Psoriasis and Other Inflammatory Diseases” (J Med Chem, 2022).

One may read the EC50 as the concentration giving half of the maximal effect. A low value points to higher potency in that assay. As a reminder, the solubility is how much of the substance goes into solution per volume. Low readings indicate little dissolved substance, high ones much dissolved substance. Usually bioavailability stands for the share of a dose that reaches the circulation, judged against a reference dose that is usually intravenous. The term fraction unbound denotes the share of the substance not bound to proteins or other matrix. A word on the Papp A→B: it is the apparent permeability from the apical to the basolateral side of a cell layer. The term Papp B→A denotes how fast a substance crosses the layer from the basolateral side. For orientation: clearance means a measure of how efficiently the substance is removed, as volume per time. High values mean efficient removal, low ones inefficient removal. Usually half-life stands for the time needed for the level to fall by half in the phase considered. A higher half-life goes with slow decline. What is called inhibition is the percentage by which the read-out fell short of the control. A lower inhibition goes with little suppression. Broadly, the Kd is the free concentration of one partner at which half of the binding sites on the other are occupied at equilibrium, for simple one-to-one binding. As a reminder, the IC50 is the point on the concentration scale where inhibition reaches its midpoint. A high value points to weaker potency.

Converted amounts (≈) assume the structure as drawn.

Data set [1] is described as follows: Inhibition of IL-8 release in non-glycosylated IL-17A/TNFalpha-stimulated human HEKa incubated for 72 hrs under serum free medium by AlphaLISA. The format is functional, cell-based. In general terms: Alpha assays give light when donor and acceptor beads are brought close together.
Data set [2] is described as follows: Inhibition of IL-8 release in glycosylated IL-17A/TNFalpha-stimulated human HEKa incubated for 72 hrs under serum free medium by AlphaLISA. The format is functional, cell-based.
Data set [3] in a line: Metabolic stability in human liver microsomes assessed as apparent clearance at 0.5 uM measured upto 40 mins in presence of NADPH by LCMS/MS analysis. As to conditions: read-out: CLH. The format is ADME, Microsome. On the technique in general: Liver microsomes are vesicles of endoplasmic reticulum, rich in cytochrome P450 enzymes.
Data set [4] in a line: Solubility in phosphate buffer at pH 7.4 measured after 24 hrs by HPLC-UV analysis. The format is physicochemical.
The nature of data set [5]: Solubility in phosphate buffer at pH 6.5 measured after 24 hrs by HPLC-UV analysis. The format is physicochemical.
The nature of data set [6]: Solubility in phosphate buffer at pH 2 measured after 24 hrs by HPLC-UV analysis. The format is physicochemical.
Data set [7] can be described thus: Volume of distribution at steady state in Sprague-Dawley rat at 0.1 mg/kg, iv measured upto 24 hrs by LCMS/MS analysis. The format is ADME, organism-based. As to conditions: in vivo, read-out: Vdss.
Data set [8] in a line: Oral bioavailability in Sprague-Dawley rat at 2.6 mg/kg measured upto 24 hrs by LCMS/MS analysis. The format is ADME, organism-based. As to conditions: in vivo.
Data set [9] is described as follows: Protein binding in human plasma assessed as unbound fraction at 1 uM by LCMS/MS analysis. The format is ADME, cell-free.
The nature of data set [10]: Apparent permeability of compound in human Caco2 cells from apical to basal. The format is ADME, cell-based. As to conditions: Caco-2. Background: Passage across Caco-2 layers is used to estimate intestinal permeability.
A short description of data set [11]: Apparent permeability of compound in human Caco2 cells from basal to apical. The format is ADME, cell-based. As to conditions: Caco-2.
Data set [12] can be described thus: Clearance in Sprague-Dawley rat at 0.1 mg/kg, iv measured upto 24 hrs by LCMS/MS analysis. The format is ADME, organism-based. The note with it: in vivo.
The nature of data set [13]: Half life in Sprague-Dawley rat at 0.1 mg/kg, iv measured upto 24 hrs by LCMS/MS analysis. As to conditions: in vivo. The format is ADME, organism-based.
Data set [14] in a line: Inhibition of IL-8 release in non-glycosylated IL-17A/TNFalpha-stimulated human HEKa cells at 0.6 uM incubated for 72 hrs under serum free medium by AlphaLISA. The format is functional.
The target in a further data set is T1, Interleukin-17A (Homo sapiens, UniProt Q16552).
T1 sequence (Q16552 whole entry): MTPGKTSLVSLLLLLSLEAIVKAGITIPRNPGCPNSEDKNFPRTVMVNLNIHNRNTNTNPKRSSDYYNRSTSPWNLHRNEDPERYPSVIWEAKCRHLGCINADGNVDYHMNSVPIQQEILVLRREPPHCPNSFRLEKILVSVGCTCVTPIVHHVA
The experiment in a line: Binding affinity to human IL-17A assessed as thermal stability by measuring increase in unfolding temperature by differential scanning fluorimetry.

Data set [15] addresses Voltage-gated inwardly rectifying potassium channel KCNH2 (Homo sapiens, UniProt Q12809). Kind of data set: Inhibition of human ERG. The format is toxicity.
Data set [16] can be described thus: Inhibition of IL-8 release in non-glycosylated IL-17A/TNFalpha-stimulated human HEKa cells at 6 uM incubated for 72 hrs under serum free medium by AlphaLISA. The format is functional.
Data set [17] can be described thus: Inhibition of IL-8 release in glycosylated IL-17A/TNFalpha-stimulated human HEKa cells at 10 uM incubated for 72 hrs under serum free medium by AlphaLISA. The format is functional.

Voltage-gated inwardly rectifying potassium channel KCNH2, sequence (Q12809 whole entry): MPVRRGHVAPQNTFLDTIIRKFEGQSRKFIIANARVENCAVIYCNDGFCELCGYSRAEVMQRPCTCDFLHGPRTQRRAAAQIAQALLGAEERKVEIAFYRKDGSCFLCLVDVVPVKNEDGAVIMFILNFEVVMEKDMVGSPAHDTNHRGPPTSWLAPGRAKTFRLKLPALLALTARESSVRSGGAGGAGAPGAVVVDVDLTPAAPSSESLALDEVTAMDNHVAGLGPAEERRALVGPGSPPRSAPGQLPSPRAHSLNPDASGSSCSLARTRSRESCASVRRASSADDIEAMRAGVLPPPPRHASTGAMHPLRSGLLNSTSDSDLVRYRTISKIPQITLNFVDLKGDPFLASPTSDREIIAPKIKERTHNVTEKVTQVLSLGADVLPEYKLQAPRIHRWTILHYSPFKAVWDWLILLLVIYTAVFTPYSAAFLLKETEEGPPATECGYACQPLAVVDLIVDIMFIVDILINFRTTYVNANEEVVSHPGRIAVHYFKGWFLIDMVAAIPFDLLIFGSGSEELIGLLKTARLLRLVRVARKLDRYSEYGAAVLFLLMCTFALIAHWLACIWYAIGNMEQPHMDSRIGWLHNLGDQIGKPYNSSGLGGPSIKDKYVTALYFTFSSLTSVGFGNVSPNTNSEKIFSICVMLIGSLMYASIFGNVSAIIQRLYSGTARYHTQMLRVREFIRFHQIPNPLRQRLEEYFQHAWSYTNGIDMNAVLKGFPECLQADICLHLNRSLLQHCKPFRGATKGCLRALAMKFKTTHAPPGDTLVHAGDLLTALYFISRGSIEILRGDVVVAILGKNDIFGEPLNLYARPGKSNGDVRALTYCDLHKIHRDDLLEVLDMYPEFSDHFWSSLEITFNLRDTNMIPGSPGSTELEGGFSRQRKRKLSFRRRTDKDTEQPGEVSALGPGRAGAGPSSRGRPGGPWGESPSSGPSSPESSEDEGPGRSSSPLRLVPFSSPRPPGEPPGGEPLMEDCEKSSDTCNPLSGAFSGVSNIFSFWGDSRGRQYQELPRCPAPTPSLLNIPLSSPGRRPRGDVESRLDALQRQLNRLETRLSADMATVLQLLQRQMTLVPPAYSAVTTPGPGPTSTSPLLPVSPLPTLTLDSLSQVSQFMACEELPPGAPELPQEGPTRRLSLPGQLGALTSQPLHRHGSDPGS

For the compound `O=C1CNC(=O)[C@@H](Cc2ccc(NC(=O)[C@H](Cc3ccccc3Cl)NC(=O)Cc3ccccc3)cc2)NC(=O)CC2(CCCC2)CC(=O)NCCCCCN1`, the values for the EC50 in data set [1] and in [2] were 151 nM and 1920 nM, respectively. Moreover, the CLint scaled at 0.5 µM in data set [3] was greater than 200 mL/min/kg.

`Cn1cncc1-c1ccc(NC(=O)[C@@H](NC(=O)c2ccnn2C)C(c2ccccc2)c2ccccc2)cc1` registered an EC50 in data set [2] of 947 nM. Besides, the CLint scaled at 0.5 µM in [3] was 21 mL/min/kg.

As for `Cc1n[nH]c(C)c1-c1ccc(NC(=O)[C@H](CC2CCCCC2)NC(=O)c2ccnn2C)cc1`, the midpoint of the response in data set [1], the EC50, lay at 935 nM. Further, the CLint scaled at 0.5 µM in [3] came to 57 mL/min/kg.

Take `Cc1n[nH]c(C)c1-c1ccc(NC(=O)[C@@H](NC(=O)c2ccnn2C)C(C2CC2)C2CC2)cc1`: in data set [1], the EC50 stood at 53 nM. Moreover, the CLint scaled at 0.5 µM in data set [3] is less than 8 mL/min/kg.

Regarding `Cc1n[nH]c(C)c1-c1ccc(NC(=O)[C@H](Cc2ccccc2Cl)NC(=O)c2ccnn2C)cc1`, in [1], the EC50 worked out at 1100 nM. Moreover, the CLint scaled at 0.5 µM in data set [3] was found to be 24 mL/min/kg.

Take `Cc1n[nH]c(C)c1-c1ccc(NC(=O)[C@@H](NC(=O)c2ccnn2C)[C@H]2CC[C@H](C)CC2)cc1`: a half-maximal response in [1] (EC50) required 50 nM. Moreover, the CLint scaled at 0.5 µM in [3] is less than 8 mL/min/kg.

Take `Cc1n[nH]c(C)c1-c1ccc(NC(=O)[C@@H](NC(=O)c2ccnn2C)C(c2ccccc2)c2ccccc2)cc1`: the figures for the solubility at 24 h in data set [4], in data set [5] and in [6] were less than 1 µg/mL, less than 1 µg/mL and 25 µg/mL (≈ 48.2 µM), respectively. The compound also yielded an EC50 in data set [2] of 117 nM. Besides, the Vd in [7] came out at 2 L/kg. Besides, in data set [8], the bioavailability turned out to be 26%. The fraction unbound at 1 µM in data set [9] was determined as 0.0011. In addition, in [10], the Papp A→B is 16 ×10⁻⁶ cm/s. In addition, the Papp B→A in [11] was 21 ×10⁻⁶ cm/s. The compound further registered a clearance in data set [12] of 7 mL/min/kg. For the same compound, the half-life in data set [13] is 192 min. For the same compound, the CLint scaled at 0.5 µM in data set [3] was less than 8 mL/min/kg.

For the compound `Cc1n[nH]c(C)c1-c1ccc(NC(=O)[C@@H](NC(=O)c2ccnn2C)c2ccccc2)cc1`, testing at 0.6 µM in data set [14] gave an inhibition of 28%. For the same compound, the CLint scaled at 0.5 µM in data set [3] was less than 8 mL/min/kg.

Consider `CCn1nccc1C(=O)N[C@H](C(=O)Nc1ccc(-c2c(C)n[nH]c2C)cc1)C(C1CCC1)C1CCC1`, for which a half-maximal effect in [1] (EC50) was put at 5.5 nM. The CLint scaled at 0.5 µM in data set [3] was 44 mL/min/kg.

The compound `Cc1n[nH]c(C)c1-c1ccc(NC(=O)[C@@H](NC(=O)c2ccnn2C)C2CCCCC2)cc1` displayed an EC50 in [1] of 208 nM. Moreover, the CLint scaled at 0.5 µM in data set [3] was less than 8 mL/min/kg.

`CC(C)[C@H](NC(=O)COCCNC(=O)OC(C)(C)C)C(=O)N[C@@H](CC(=O)O)Cc1ccc(NC(=O)[C@H](Cc2ccccc2Cl)NC(=O)C(F)(F)c2ccccc2)cc1` returned an EC50 in data set [1] of 575 nM. Besides, in [3], the CLint scaled at 0.5 µM was determined as 33 mL/min/kg.

As to `Cc1[nH]ncc1-c1ccc(NC(=O)[C@@H](NC(=O)c2ccnn2C)C(c2ccccc2)c2ccccc2)cc1`, it took 385 nM to reach a half-maximal effect in [2] (EC50). Besides, the CLint scaled at 0.5 µM in data set [3] was less than 8 mL/min/kg.

In turn, `CCn1nccc1C(=O)N[C@H](C(=O)Nc1ccc(-c2c(C)n[nH]c2C)cc1)C(C1CC1)C1CC1` registered an EC50 in data set [1] of 26 nM. Moreover, the CLint scaled at 0.5 µM in data set [3] is less than 8 mL/min/kg.

On to `Cn1nccc1C(=O)N[C@H](C(=O)Nc1ccc(-c2cn[nH]c2)cc1)C(c1ccccc1)c1ccccc1`, for which the EC50 in data set [2] was 3380 nM. The CLint scaled at 0.5 µM in data set [3] was less than 8 mL/min/kg.

Consider `Cc1n[nH]c(C)c1-c1ccc(NC(=O)[C@@H](NC(=O)c2ccnn2C(C)C)C(C2CC2)C2CC2)cc1`, for which the results for the solubility at 24 h in data set [4], in data set [5] and in [6] were less than 1 µg/mL, less than 1 µg/mL and 40 µg/mL (≈ 84.3 µM), respectively. The compound also displayed an EC50 in data set [1] of 15 nM. Further, the Kd on Interleukin-17A turned out to be 32 nM. Besides, in data set [7], the Vd is 2.6 L/kg. In data set [8], the bioavailability amounted to 100%. The IC50 in data set [15] was greater than 30 µM. Moreover, the fraction unbound at 1 µM in data set [9] amounted to 0.017. In addition, in data set [10], the Papp A→B was 38 ×10⁻⁶ cm/s. The Papp B→A in [11] was determined as 26 ×10⁻⁶ cm/s. The clearance in [12] was 7.4 mL/min/kg. Further, the half-life in data set [13] was 222 min. The CLint scaled at 0.5 µM in data set [3] is less than 8 mL/min/kg.

For `Cc1n[nH]c(C)c1-c1ccc(NC(=O)[C@H](Cc2ccccc2)NC(=O)c2ccnn2C)cc1`, at 6 µM the inhibition in [16] was 37%. For the same compound, in [3], the CLint scaled at 0.5 µM stood at 12 mL/min/kg.

Regarding `Cn1cnnc1-c1ccc(NC(=O)[C@@H](NC(=O)c2ccnn2C)C(c2ccccc2)c2ccccc2)cc1`, in [17], 10 µM produced 47% inhibition. In addition, the CLint scaled at 0.5 µM in data set [3] is less than 8 mL/min/kg.

`Cc1n[nH]c(C)c1-c1ccc(NC(=O)[C@@H](NC(=O)c2ccnn2C)C(C2CCC2)C2CCC2)cc1` came in with an EC50 in data set [1] of 10 nM. The CLint scaled at 0.5 µM in data set [3] stood at 9 mL/min/kg.

As for `Cc1n[nH]c(C)c1-c1ccc(NC(=O)[C@@H](NC(=O)c2ccnn2C)C2CCCCCC2)cc1`, the EC50 in data set [1] came out at 36 nM. Besides, the CLint scaled at 0.5 µM in data set [3] is 105 mL/min/kg.

The compound `CN(C)C(=O)c1ccc(NC(=O)[C@@H](NC(=O)c2ccnn2C)C(c2ccccc2)c2ccccc2)cc1` had an EC50 in [1] of 5610 nM. For the same compound, 10 µM produced 52% inhibition in data set [17]. The CLint scaled at 0.5 µM in data set [3] is less than 8 mL/min/kg.

`Cc1n[nH]c(C)c1-c1ccc(NC(=O)C(NC(=O)c2ccnn2C)C2CCC3(CC2)CC3)cc1` (stereo not given) yielded an EC50 in data set [1] of 296 nM. Besides, the CLint scaled at 0.5 µM in [3] was less than 8 mL/min/kg.

On to `Cc1n[nH]c(C)c1-c1ccc(NC(=O)[C@@H](NC(=O)c2ccnn2C(C)C)C(C2CCC2)C2CCC2)cc1`, for which, in data set [1], the EC50 turned out to be 4.5 nM. Further, the CLint scaled at 0.5 µM in data set [3] was 52 mL/min/kg.

With `Cc1ncn(C)c1-c1ccc(NC(=O)[C@@H](NC(=O)c2ccnn2C)C(c2ccccc2)c2ccccc2)cc1`, the EC50 in data set [2] is 304 nM. Also, the CLint scaled at 0.5 µM in [3] stood at 94 mL/min/kg.
